The term IC50 denotes the point on the concentration scale where inhibition reaches its midpoint. High values mean a need for much substance, low ones inhibition by little substance.

Among the data in US20200253978A1, “HETEROCYCLICS AS INHIBITORS OF FIBROBLAST GROWTH FACTOR RECEPTOR” (ADVENT PHARMA CO. LTD., priority 2017, published 2020) are IC50 values, retold here.

Assay [1] has as its target T1, BaF3 cells expressing Tel-FGFR-1 and luciferase (Homo sapiens, UniProt P11362).
T1 construct: Luciferase is co-expressed as a viability reporter and is not part of the key; P41212 (Transcription factor ETV6)
The assay can be described thus: BaF3 cellular growth inhibition assay, Tel-FGFR-1 and luciferase (Bright-Glo). It counts as cell-based. Conditions: BaF3 Tel-FGFR-1 cells, 2 days incubation, 50% growth inhibition vs DMSO; numeric bounds. The protocol: (§1) Compounds' inhibitory activities against FGFR-4 or FGFR-1 were measured in BaF3 cells expressing Tel-FGFR-4 and luciferase or Tel-FGFR-1 and luciferase, whose growth was dependent on FGFR-4 or FGFR-1 kinase but independent of IL-3. The cells were plated in 384-well plates in RPMI1640 with 10% FBS. Compounds were added as 11-point dilutions. Cell viability was determined by Bright-Glo luciferase assay (Promega) after cells were incubated with compounds for 2 days. The IC50 value was determined as the concentration for 50% growth inhibition compared to DMSO treated cells (A: IC50<0.1 μM; B: IC50 between 0.1 μM and 1 μM; C: IC50 between 1 μM and 10 μM).

The target in assay [2] is T2, BaF3 cells expressing Tel-FGFR-4 and luciferase (Homo sapiens, UniProt P22455).
T2 construct: Luciferase is co-expressed as a viability reporter and is not part of the key; P41212 (Transcription factor ETV6)
T2 sequence (P22455 467-755 limits assumed): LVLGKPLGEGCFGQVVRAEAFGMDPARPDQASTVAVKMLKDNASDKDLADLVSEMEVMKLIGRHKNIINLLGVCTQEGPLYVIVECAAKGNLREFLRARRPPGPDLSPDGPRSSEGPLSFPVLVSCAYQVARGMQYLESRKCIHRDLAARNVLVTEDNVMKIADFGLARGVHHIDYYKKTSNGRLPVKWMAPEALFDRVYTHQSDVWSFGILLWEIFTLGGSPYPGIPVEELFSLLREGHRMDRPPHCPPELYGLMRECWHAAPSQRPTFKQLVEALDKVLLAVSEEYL
Kind of assay: BaF3 cellular growth inhibition assay, Tel-FGFR-4 and luciferase (Bright-Glo). It counts as cell-based. Conditions: BaF3 Tel-FGFR-4 cells, 2 days incubation, 50% growth inhibition vs DMSO. The procedure:
as §1

A value given as a limit tells only on which side of the number the result lay.

T1 sequence (P11362 478-767 limits assumed): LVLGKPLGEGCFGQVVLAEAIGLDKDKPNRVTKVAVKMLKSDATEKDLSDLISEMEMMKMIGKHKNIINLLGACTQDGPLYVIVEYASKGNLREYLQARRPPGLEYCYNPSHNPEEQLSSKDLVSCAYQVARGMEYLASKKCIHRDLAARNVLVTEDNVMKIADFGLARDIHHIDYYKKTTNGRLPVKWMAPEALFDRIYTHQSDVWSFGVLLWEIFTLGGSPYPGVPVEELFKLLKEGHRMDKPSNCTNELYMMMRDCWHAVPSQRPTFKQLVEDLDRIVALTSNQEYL

As for `C=CC(=O)Nc1cccc(C(F)(F)F)c1Nc1cc2cc(C(=O)c3c(F)c(OC)cc(OC)c3F)oc2cn1` [Example 25, N-(2-((2-(2,6-difluoro-3,5-dimethoxybenzoyl)furo[2,3-c]pyridin-5-yl)amino)-3-(trifluoromethyl)phenyl)acrylamide], the half-maximal inhibitory concentration (IC50) in assay [1] is above 3.3 µM; in assay [2] it was 100 to 1000 nM.
As for `C=CC(=O)Nc1cccc(Cl)c1Nc1cc2cc(C(=O)c3c(F)c(OC)cc(OC)c3F)oc2cn1` [Example 26, N-(3-chloro-2-((2-(2,6-difluoro-3,5-dimethoxybenzoyl)furo[2,3-c]pyridin-5-yl)amino)phenyl)acrylamide], the half-inhibitory concentration (IC50) in assay [1] is above 5.1 µM; in assay [2] it was below 100 nM.
Regarding `C=CC(=O)Nc1cc(N2CCN(CC)CC2)ccc1Nc1cc2cc(C(=O)Nc3c(F)c(OC)cc(OC)c3F)oc2cn1` [Example 32, 5-((2-acrylamido-4-(4-ethylpiperazin-1-yl)phenyl)amino)-N-(2,6-difluoro-3,5-dimethoxyphenyl)furo[2,3-c]pyridine-2-carboxamide], the values for the IC50 in assay [1] and in assay [2] were above 3.3 µM and 100 to 1000 nM, respectively.
On the same counts, the results for `CCN1CCN(c2ccc(Nc3cc4cc(C(=O)c5c(F)c(OC)cc(OC)c5F)oc4cn3)c(NC(=O)/C=C\Cl)c2)CC1` [Example 33, (Z)-3-chloro-N-(2-((2-(2,6-difluoro-3,5-dimethoxybenzoyl)furo[2,3-c]pyridin-5-yl)amino)-5-(4-ethylpiperazin-1-yl)phenyl)acrylamide] are above 3.3 µM and below 100 nM.
For the compound `C=CC(=O)N[C@H]1CCOC[C@H]1Nc1ncc2oc(C(O)c3c(F)c(OC)cc(OC)c3F)cc2n1` (stereo partly drawn) [Example 34, N-((3S,4S)-3-((6-((2,6-difluoro-3,5-dimethoxyphenyl)(hydroxy)methyl)furo[3,2-d]pyrimidin-2-yl)amino)tetrahydro-2H-pyran-4-yl)acrylamide], the IC50 was above 10 µM in assay [1] and 1000 to 10000 nM in assay [2].
Consider `C=CC(=O)N[C@H]1CCOC[C@H]1Nc1ncc2oc(C(=O)c3c(F)c(OC)cc(OC)c3F)cc2n1` [Example 35, N-((3S,4S)-3-((6-(2,6-difluoro-3,5-dimethoxybenzoyl)furo[3,2-d]pyrimidin-2-yl)amino)tetrahydro-2H-pyran-4-yl)acrylamide], for which the IC50 in assay [1] is above 10 µM; in assay [2], below 100 nM.
In the same order, the values of `C=CC(=O)Nc1cc(N2CCN(CC)CC2)ccc1Nc1cc2c(O)c(C(=O)c3c(F)c(OC)cc(OC)c3F)oc2cn1` [Example 36, N-(2-((2-(2,6-difluoro-3,5-dimethoxybenzoyl)-3-hydroxyfuro[2,3-c]pyridin-5-yl)amino)-5-(4-ethylpiperazin-1-yl)phenyl)acrylamide] are above 10 µM and 1000 to 10000 nM.
In the same order, the values of `C=CC(=O)N[C@H]1CCOC[C@H]1Nc1cc2cc(-c3c(Cl)c(OC)cc(OC)c3Cl)oc2cn1` [Example 37, N-((3S,4S)-3-((2-(2,6-dichloro-3,5-dimethoxyphenyl)furo[2,3-c]pyridin-5-yl)amino)tetrahydro-2H-pyran-4-yl)acrylamide] are above 10 µM and 100 to 1000 nM.
